The assay deals with T1, Recombinant human PAD2 (residues 1-665) (Homo sapiens, UniProt Q9Y2J8).
T1 construct: Recombinant human PAD2 (residues 1-665) was expressed in baculovirus-infected Sf9 insect cells; 6His-FLAG (N); made in house; host or cells: baculovirus-infected Sf9 insect cells
Briefly: PAD2 enzyme assay (FLINT NH3 release, BAEE substrate). Type of assay: biochemical. Particulars: PAD2 enzyme assay above or similar assays; to assess selectivity for PAD4 over PAD2; read-out: mean pIC50 (converted). On the procedure: Activity of the final product was determined using a FLINT NH3 release assay.
8 μl of PAD2 enzyme diluted to an assay concentration of 30 nM in assay buffer (100 mM HEPES, 50 mM NaCl, 2 mM DTT, 7.5% glycerol and 1.5 mM CHAPS pH 8), and added to wells containing 0.1 μl of various concentrations of compound or DMSO vehicle (0.8% final) in a Greiner high volume 384 well black plate. […] The reaction was stopped after 90 mins with the addition of […] stop/detection buffer containing 50 mM EDTA, 2.6 mM phthalaldehyde and 2.6 mM DTT.

13 compounds from patent publication US10407407B2, “Benzoimidazole derivatives as PAD4 inhibitors” (GLAXOSMITHKLINE INTELLECTUAL PROPERTY DEVELOPMENT LIMITED, priority 2015, dated 2019) can be followed below.

T1 sequence (Q9Y2J8 whole entry, the tested form may be a part): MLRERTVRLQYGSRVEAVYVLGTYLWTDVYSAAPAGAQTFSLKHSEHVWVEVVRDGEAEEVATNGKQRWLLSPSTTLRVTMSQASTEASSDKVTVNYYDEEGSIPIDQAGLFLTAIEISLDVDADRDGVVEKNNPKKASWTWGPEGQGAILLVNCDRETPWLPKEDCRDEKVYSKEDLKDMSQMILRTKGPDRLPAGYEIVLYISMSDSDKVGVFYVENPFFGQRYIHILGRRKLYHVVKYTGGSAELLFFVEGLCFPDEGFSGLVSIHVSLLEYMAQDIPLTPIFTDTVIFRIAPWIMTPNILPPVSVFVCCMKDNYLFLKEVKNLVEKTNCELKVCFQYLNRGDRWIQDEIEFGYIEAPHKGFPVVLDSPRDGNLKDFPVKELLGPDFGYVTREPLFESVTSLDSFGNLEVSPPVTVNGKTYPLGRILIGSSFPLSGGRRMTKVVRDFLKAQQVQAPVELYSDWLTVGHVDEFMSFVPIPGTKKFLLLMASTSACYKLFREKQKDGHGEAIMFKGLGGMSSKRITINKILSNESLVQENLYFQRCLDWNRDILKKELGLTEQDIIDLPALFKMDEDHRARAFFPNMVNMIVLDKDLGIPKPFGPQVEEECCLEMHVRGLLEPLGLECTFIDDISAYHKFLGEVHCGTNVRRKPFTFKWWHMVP

Take `CCn1c(-c2nc3cc(C(=O)N4CC[C@H](OC)[C@@H](N)C4)ccc3n2C)cc2ccccc21` (racemic) [Example 51, (+/−)-((trans)-3-Amino-4-methoxypiperidin-1-yl)(2-(1-ethyl-1H-indol-2-yl)-1-methyl-1H-benzo[d]imidazol-5-yl)methanone]: the IC50 was greater than 79.4 µM.

As for `CCn1c(-c2nc3cc(C(=O)N4C[C@@H](N)CC[C@H]4C)ccc3n2C)cc2ccccc21` (single isomer, unassigned) [Example 54, cis-(5-Amino-2-methylpiperidin-1-yl)(2-(1-ethyl-1H-indol-2-yl)-1-methyl-1H-benzo[d]imidazol-5-yl)methanone], the IC50 was greater than 79.4 µM.

Regarding `CCn1c(-c2nc3cc(C(=O)N4C[C@H](C)C[C@H](N)C4)ccc3n2C)cc2ccccc21` (single isomer, unassigned) [Example 124, cis-(3-Amino-5-methylpiperidin-1-yl)(2-(1-ethyl-1H-indol-2-yl)-1-methyl-1H-benzo[d]imidazol-5-yl)methanone], the IC50 is greater than 79.4 µM.

As to `CCn1c(-c2nc3cc(C(=O)N4CCC[C@@H](N)C4)ccc3n2C)cc2ccccc21` [Example 1a], the IC50 is no less than 10 µM.

In the case of `CCn1c(-c2nc3cc(C(=O)N4CCC[C@@H](N)C4)ccc3n2C)cc2cccc(OC)c21` [Example 2, (3R)-1-({2-[1-ethyl-7-(methyloxy)-1H-indol-2-yl]-1-methyl-1H-benzimidazol-5-yl}carbonyl)-3-piperidinamine], the IC50 was no less than 10 µM.

On to `CC(C)n1c(-c2nc3cc(C(=O)N4CCC[C@@H](N)C4)ccc3n2C)cc2ccccc21` [Example 12, (3R)-1-({1-Methyl-2-[1-(1-methylethyl)-1H-indol-2-yl]-1H-benzimidazol-5-yl}carbonyl)-3-piperidinamine], for which the IC50 is no less than 10 µM.

In the case of `Cn1c(-c2cc3ccccc3n2CC2CC2)nc2cc(C(=O)N3CCC[C@@H](N)C3)ccc21` [Example 16, (3R)-1-({2-[1-(Cyclopropylmethyl)-1H-indol-2-yl]-1-methyl-1H-benzimidazol-5-yl}carbonyl)-3-piperidinamine], the IC50 was no less than 10 µM.

As for `Cn1c(-c2cc3ccccc3[nH]2)nc2cc(C(=O)N3CCC[C@@H](N)C3)ccc21` [Example 18, (3R)-1-{[2-(1H-Indol-2-yl)-1-methyl-1H-benzimidazol-5-yl]carbonyl}-3-piperidinamine], the IC50 was no less than 10 µM.

Consider `CC(C)Cn1c(-c2nc3cc(C(=O)N4CCC[C@@H](N)C4)ccc3n2C)cc2ccccc21` [Example 19, (3R)-1-({1-Methyl-2-[1-(2-methylpropyl)-1H-indol-2-yl]-1H-benzimidazol-5-yl}carbonyl)-3-piperidinamine], for which the IC50 was no less than 10 µM.

As to `Cn1cc(Cn2c(-c3nc4cc(C(=O)N5CCC[C@@H](N)C5)ccc4n3C)cc3ccccc32)cn1` [Example 20a, (3R)-1-[(1-methyl-2-{1-[(1-methyl-1H-pyrazol-4-yl)methyl]-1H-indol-2-yl}-1H-benzimidazol-5-yl)carbonyl]-3-piperidinamine], the IC50 is no less than 10 µM.

Regarding `COCCn1c(-c2nc3cc(C(=O)N4CCC[C@@H](N)C4)ccc3n2C)cc2ccccc21` [Example 22, (3R)-1-[(1-methyl-2-{1-[2-(methyloxy)ethyl]-1H-indol-2-yl}-1H-benzimidazol-5-yl)carbonyl]-3-piperidinamine], the IC50 was greater than 79.4 µM.

As for `Cn1c(-c2cc3ccccc3n2CCO)nc2cc(C(=O)N3CCC[C@@H](N)C3)ccc21` [Example 29, 2-[2-(5-{[(3R)-3-Amino-1-piperidinyl]carbonyl}-1-methyl-1H-benzimidazol-2-yl)-1H-indol-1-yl]ethanol], the IC50 was greater than 79.4 µM.

Take `CCOc1ccc2cc(-c3nc4cc(C(=O)N5CCC[C@@H](N)C5)ccc4n3C)n(CC)c2c1` [Example 32, (R)-(3-Aminopiperidin-1-yl)(2-(6-ethoxy-1-ethyl-1H-indol-2-yl)-1-methyl-1H-benzo[d]imidazol-5-yl)methanone]: the IC50 was no less than 10 µM.
